In ChEMBL document CHEMBL3526091, “Pharmacokinetics, metabolism, and excretion of the glycogen synthase kinase-3 inhibitor LY2090314 in rats, dogs, and humans: a case study in rapid clearance by extensive metabolism with low circulating metabolite exposure” (Drug Metab Dispos, 2013):

Tests used:
[1] = tested on: Rattus norvegicus; assay: Cmax in Sprague-Dawley rat assessed as total radioactivity at 5 mg/kg, iv administered for 30 mins; type: ADME, organism-based; set-up: dose 5 mg/kg, dosed compound name [14C]LY2090314, route intravenous; details: in vivo, 0.5 h
[2] = Cmax in cancer patient at 10 mg for 60 mins treated 2/1 cycle/day; type: ADME, organism-based; set-up: dose 10 mg, dosed compound name LY2090314; details: human, in vivo
[3] = Drug recovery in bile duct-cannulated Sprague-Dawley rat cage/carcass at 5 mg/kg, iv administered for 30 mins during 0 to 168 hrs time interval by radio analysis; type: ADME, organism-based; set-up: dose 5 mg/kg, dosed compound name [14C]LY2090314, route intravenous; details: in vivo
[4] = Drug recovery in bile duct-intact Sprague-Dawley rat assessed as radioactivity in bile during 0 to 24 hrs at 5 mg/kg, iv administered for 30 mins relative to dosed radioactivity; type: ADME, organism-based; set-up: dose 5 mg/kg, dosed compound name [14C]LY2090314, route intravenous; details: in vivo
[5] = Half life in cancer patient at 20 mg for 60 mins treated 1/1 cycle/day; type: ADME, organism-based; set-up: dosed compound name LY2090314; details: human, in vivo
[6] = tested on: Rattus norvegicus; assay: Clearance in Sprague-Dawley rat assessed as total radioactivity at 5 mg/kg, iv administered for 30 mins; type: ADME, organism-based; set-up: dose 5 mg/kg, dosed compound name [14C]LY2090314, route intravenous; details: in vivo, 0.5 h
[7] = tested on: Rattus norvegicus; assay: Tmax in Sprague-Dawley rat assessed as total radioactivity at 5 mg/kg, iv administered for 30 mins; type: ADME, organism-based; set-up: dose 5 mg/kg, dosed compound name [14C]LY2090314, route intravenous; details: in vivo, 0.5 h
[8] = Drug recovery in bile duct-cannulated Sprague-Dawley rat urine at 5 mg/kg, iv administered for 30 mins during 0 to 12 hrs time interval by radio analysis; type: ADME, organism-based; set-up: dose 5 mg/kg, dosed compound name [14C]LY2090314, route intravenous; details: in vivo
[9] = tested on: Canis familiaris; assay: Volume of distribution at steady state in beagle dog assessed as total radioactivity at 5 mg/kg, iv administered for 30 mins; type: ADME, organism-based, Canis lupus familiaris; set-up: dose 5 mg/kg, dosed compound name [14C]LY2090314, route intravenous; details: in vivo, 0.5 h
[10] = Volume of distribution at steady state in cancer patient at 60 mg for 60 mins treated 1/8 cycle/day; type: ADME, organism-based; set-up: dosed compound name LY2090314; details: human, in vivo, read-out: Vdss
[11] = Half life in cancer patient at 80 mg for 60 mins treated 1/1 cycle/day; type: ADME, organism-based; set-up: dosed compound name LY2090314; details: human, in vivo
[12] = tested on: Rattus norvegicus; assay: AUC (0 to infinity) in Sprague-Dawley rat assessed as total radioactivity at 5 mg/kg, iv administered for 30 mins; type: ADME, organism-based, Plasma; set-up: dose 5 mg/kg, dosed compound name [14C]LY2090314, route intravenous, time infinity; details: in vivo, 0.5 h
[13] = Volume of distribution at steady state in cancer patient at 40 mg for 60 mins treated 1/8 cycle/day; type: ADME, organism-based; set-up: dosed compound name LY2090314; details: human, in vivo, read-out: Vdss
[14] = tested on: Rattus norvegicus; assay: Drug recovery in Sprague-Dawley rat cage at 5 mg/kg, iv administered for 30 mins during 0 to 24 hrs time interval by radio analysis; type: ADME, organism-based; set-up: dose 5 mg/kg, dosed compound name [14C]LY2090314, route intravenous; details: in vivo
[15] = Drug recovery in Sprague-Dawley rat urine at 5 mg/kg, iv administered for 30 mins during 0 to 168 hrs time interval by radio analysis; type: ADME, organism-based; set-up: dose 5 mg/kg, dosed compound name [14C]LY2090314, route intravenous; details: in vivo
[16] = Cmax in cancer patient at 40 mg for 60 mins treated 1/8 cycle/day; type: ADME, organism-based; set-up: dose 40 mg, dosed compound name LY2090314; details: human, in vivo
[17] = Volume of distribution at steady state in Sprague-Dawley rat at 5 mg/kg, iv administered for 30 mins; type: ADME, organism-based; set-up: dose 5 mg/kg, dosed compound name [14C]LY2090314, route intravenous; details: in vivo, read-out: Vdss
[18] = Tmax in cancer patient at 40 mg for 60 mins treated 1/8 cycle/day; type: ADME, organism-based; set-up: dosed compound name LY2090314; details: human, in vivo
[19] = tested on: Canis familiaris; assay: Total drug recovery in beagle dog at 5 mg/kg, iv administered for 30 mins during 48 hrs time interval by radio analysis; type: ADME, organism-based, Canis lupus familiaris; set-up: dose 5 mg/kg, dosed compound name [14C]LY2090314, route intravenous; details: in vivo
[20] = Drug metabolism in Bcrp knockout Sprague-Dawley rat urine at 5 mg/kg, iv administered for 30 mins; type: ADME, organism-based; set-up: dose 5 mg/kg, dosed compound name LY2090314, route intravenous; details: in vivo, 0.5 h
[21] = tested on: Plasma; assay: Drug metabolism in Bcrp knockout Sprague-Dawley rat plasma at 5 mg/kg, iv administered for 30 mins; type: ADME, organism-based; set-up: dose 5 mg/kg, dosed compound name LY2090314, route intravenous; details: in vivo, 0.5 h
[22] = Volume of distribution at steady state in beagle dog at 5 mg/kg, iv administered for 30 mins; type: ADME, organism-based, Canis lupus familiaris; set-up: dose 5 mg/kg, dosed compound name [14C]LY2090314, route intravenous; details: in vivo, read-out: Vdss
[23] = Half life in cancer patient at 120 mg for 60 mins treated 1/1 cycle/day; type: ADME, organism-based; set-up: dosed compound name LY2090314; details: human, in vivo
[24] = Tmax in cancer patient at 10 mg for 60 mins treated 1/1 cycle/day; type: ADME, organism-based; set-up: dosed compound name LY2090314; details: human, in vivo
[25] = AUC (0 to infinity) in cancer patient at 80 mg for 60 mins treated 1/8 cycle/day; type: ADME, organism-based; set-up: dose 80 mg, time infinity, dosed compound name LY2090314; details: human, plasma
[26] = Drug recovery in Sprague-Dawley rat feces at 5 mg/kg, iv administered for 30 mins during 0 to 168 hrs time interval by radio analysis; type: ADME, organism-based; set-up: dose 5 mg/kg, dosed compound name [14C]LY2090314, route intravenous; details: in vivo
[27] = Drug recovery in beagle dog urine at 5 mg/kg, iv administered for 30 mins during 0 to 12 hrs by radio analysis; type: ADME, organism-based, Canis lupus familiaris; set-up: dose 5 mg/kg, dosed compound name [14C]LY2090314, route intravenous; details: in vivo

`O=C1NC(=O)C(c2cnc3ccccn23)=C1c1cn2c3c(cc(F)cc13)CN(C(=O)N1CCCCC1)CC2` [LY-2090314] gave a Cmax [1] of 2.08 µg/mL, a Cmax [2] of 0.106 µg/mL and a Radiolabel recovery [3] of 0.31%. The Radiolabel recovery [4] was 1.8%, the half-life [5] was 1.84 h and the CL [6] was 2.43 L/h/kg. It also gave a Tmax [7] of 0.5 h, a Radiolabel recovery [8] of 1.82% and a Vdss [9] of 9.84 L/kg. The Vd [10] was 67.5 L, the half-life [11] was 2.57 h and the AUC [12] was 1.79 µg·h/mL. For the same molecule, the Vd [13] was 64.1 L, the Radiolabel recovery [14] was 0.07% and the Radiolabel recovery [15] was 0.8%. For the same molecule, the Cmax [16] was 0.657 µg/mL, the Vd [17] was 1.19 L/kg and the Tmax [18] was 1 h. The Radiolabel recovery [19] was 88%, the Drug metabolism [20] was “metabolite_detected” and the Drug metabolism [21] was “metabolite_not_detected”. The Vd [22] was 0.915 L/kg, the half-life [23] was 2.97 h and the Tmax [24] was 0.95 h. It also gave an AUC(0-inf) [25] of 1.83 µg·h/mL, a Radiolabel recovery [26] of 96.7% and a Radiolabel recovery [27] of 0.35%.
